From PubChem BioAssay (NCI)
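Growth conditions: 96-well plates. Treatment: test compound, 48 hours, 5 concentrations. Analysis: linear interpolation between bracketing concentrations; unreached endpoints set to highest concentration. GI50: concentration for 50% inhibition of growth. TGI: concentration producing complete growth inhibition.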

Legend:
Assay in all cases: inhibition of tumour cell growth, NCI panel, 48 h
M14 melanoma = system: M14 melanoma
MOLT-4 leukemia = system: MOLT-4 leukemia
CCRF-CEM leukemia = system: CCRF-CEM leukemia
K-562 leukemia = system: K-562 leukemia
786-0 renal = system: 786-0 renal
DU-145 prostate = system: DU-145 prostate
NCI-H226 lung = system: NCI-H226 lung
SF-268 CNS = system: SF-268 CNS
NCI/ADR-RES ovarian = system: NCI/ADR-RES ovarian
RPMI-8226 leukemia = system: RPMI-8226 leukemia

SMILES	TGI (M14 melanoma) [µM]	TGI (MOLT-4 leukemia) [µM]	TGI (CCRF-CEM leukemia) [µM]	TGI (K-562 leukemia) [µM]	TGI (786-0 renal) [µM]	TGI (DU-145 prostate) [µM]	TGI (NCI-H226 lung) [µM]	TGI (SF-268 CNS) [µM]	TGI (NCI/ADR-RES ovarian) [µM]	TGI (RPMI-8226 leukemia) [µM]	GI50 (M14 melanoma) [µM]	GI50 (MOLT-4 leukemia) [µM]	GI50 (CCRF-CEM leukemia) [µM]	GI50 (K-562 leukemia) [µM]	GI50 (DU-145 prostate) [µM]	GI50 (NCI-H226 lung) [µM]	GI50 (SF-268 CNS) [µM]	GI50 (NCI/ADR-RES ovarian) [µM]	GI50 (RPMI-8226 leukemia) [µM]
CC1(C)CC(=O)C2=C(C1)OC1=C(CC(C)(C)CC1=O)C2c1ccccc1Cl (stereo unspecified)	> 100	> 100	> 100	> 100	> 100	> 100	> 100	> 100	> 100	> 100									
C[N+](C)([O-])Cc1cccc(NC(=O)c2ccc(C(=O)Nc3cccc(C[N+](C)(C)[O-])c3)cc2)c1	> 100	> 100	> 100	> 100	> 100	> 100	> 100	> 100	> 100	> 100									
Nc1c2ccccc2nc2ccc(C(=O)Nc3ccc(S(N)(=O)=O)cc3)cc12	> 100	> 100	> 100	> 100	> 100	> 100	> 100	> 100	> 100	> 100									
CN(C)/C=C/c1ccnc2c1C(=O)c1ccccc1C2=O	4.16	> 64.1	> 56	> 47.1	73.6	3.41	> 52.7	> 69	57.4	39.3									
COc1cc2c(cc1C)NC(=O)/C2=C/c1c(Cl)n(C)c2ccccc12	48.1	72.7	> 100	> 100	30.7	23.6	27.2	16.2	24.6	> 100									
CC(C)(C)OC(=O)N(CCCN)CCCCN(CCCN)C(=O)OC(C)(C)C	> 100	> 100	> 100	> 100	> 100	> 100	> 100	> 100	> 100	> 100									
CCN1CCc2sc3[nH]c(=S)n(C)c(=O)c3c2C1	> 100	> 100	> 100	> 100	> 100	> 100	> 100	> 100	> 100	> 100									
CC(C)NC(=O)OCc1c(COC(=O)NC(C)C)c(-c2ccc[n+](COC(=O)C3CCCCC3)c2)n2c1CCC2	> 100	> 100	> 100	> 100	> 100	> 100	> 100	> 100	> 100	> 100									
O=S(=O)(N1CCCCN(S(=O)(=O)C(F)(F)F)CCCN(S(=O)(=O)C(F)(F)F)CCCN(S(=O)(=O)C(F)(F)F)CCCCN(S(=O)(=O)C(F)(F)F)CCCN(S(=O)(=O)C(F)(F)F)CCC1)C(F)(F)F	> 100	> 100	> 100	> 100	35.3	> 100	> 100	> 100	> 100										
Cc1cc(C)n(CN(Cn2nc(C)cc2C)c2ccc(N(Cn3nc(C)cc3C)Cn3nc(C)cc3C)cc2)n1	36.5	> 100	63.9	50.3	43.4	58.3		69.7	43.2	40									
COC(=O)C(I(OS(=O)(=O)c1ccc(C)cc1)c1ccccc1)=P(c1ccccc1)(c1ccccc1)c1ccccc1	32.4	84.4	> 100	> 100	28.9	32.4	23.2	33.4	> 100	24.2									
CN(C)CCCn1c2c(c3ccncc3c1=O)C(=O)c1ccccc1-2	5.71		13	12.3		10.6	2.47	10.7	11.6	7.62	1.6	0.324	0.77	0.573	0.988	0.466	1.47	0.803	1.72
Cc1ccc(-c2cn3c(nc4ccccc43)c(C)n2)cc1	> 100	> 100	> 100	> 100	> 75.5	> 100	> 100	> 100	> 100	> 100									
COc1cc(OC)cc(N(C)Cc2cnc3nc(N)nc(N)c3c2C)c1	55.4	> 100	> 100	> 100	> 100	> 100	> 100	> 100	> 100	> 100									
CCOc1c(OC)cc(CNNc2nccs2)cc1OC	> 100	> 100	> 100	> 100	> 100	> 100	> 100	> 100	> 100	> 100									
c1ccc(C2(c3cc4ccccc4[nH]3)OCCO2)cc1	> 100	49.4	74	> 100	> 100	> 100	> 100	> 100	> 100	> 100									

SMILES	TGI (M14 melanoma) [µM]	TGI (MOLT-4 leukemia) [µM]	TGI (CCRF-CEM leukemia) [µM]	TGI (K-562 leukemia) [µM]	TGI (786-0 renal) [µM]	TGI (DU-145 prostate) [µM]	TGI (NCI-H226 lung) [µM]	TGI (SF-268 CNS) [µM]	TGI (NCI/ADR-RES ovarian) [µM]	TGI (RPMI-8226 leukemia) [µM]	GI50 (M14 melanoma) [µM]	GI50 (MOLT-4 leukemia) [µM]	GI50 (CCRF-CEM leukemia) [µM]	GI50 (K-562 leukemia) [µM]	GI50 (DU-145 prostate) [µM]	GI50 (NCI-H226 lung) [µM]	GI50 (SF-268 CNS) [µM]	GI50 (NCI/ADR-RES ovarian) [µM]	GI50 (RPMI-8226 leukemia) [µM]
O=C1c2ccccc2C(=O)c2c1c1cc(O)ccc1n2Cc1ccc(Cl)cc1Cl	46.6	43.4	18.9	> 100	8.09	> 100	31.1	29.7	11.7	26.7									
Cc1[nH]c(=O)nc2c1C(=O)N(C(C)C)C(NC(C)C)S2 (stereo unspecified)	> 100	> 100	> 100	> 100	> 100	> 100	> 100		> 100	> 100									
N#Cc1c(C#N)c(-c2ccco2)n(/N=C/c2ccco2)c1N	> 100	> 100	> 100	> 100	> 100	> 100	66.2	> 100	> 100	> 100									
CN(C)CCCNc1ccc2nnn3c4ccc([N+](=O)[O-])cc4c(=O)c1c23	8.31	5.63	12.1	21.9	13	12.1	3.02	12	3.09	7.31									
C=CCn1c(=O)c(-c2ccccc2)c(O)c2ccccc21		> 100	> 100	> 100	> 100	> 100	> 100	> 100	> 100	> 100									
COC[C@@H](N=Cc1ccc(OC)cc1)C(C)C	> 100	> 100	> 100	> 100	> 100	> 100		> 100	> 100	> 100									
COc1cc(NS(C)(=O)=O)ccc1N1Cc2cnc3ccc4[nH]ccc1c4c23	> 100	62.5	> 100	> 100	> 100	> 100	93.5	75.2	> 100	46.8									
Clc1ccc(CCn2ccc3ccccc32)c(Cl)c1	> 100	> 100	> 100	> 100	> 100	> 100	> 100	> 100	> 100	> 100									
OB1OCc2ccccc21	> 100	> 100	54.9	> 100	> 100	> 100	> 100	> 100	57.9	45.9									
Fc1ccccc1N=c1oc2ccc(Br)cc2cc1-c1nc2ccccc2[nH]1	35.8	> 100	> 100	> 100	8.5	> 42.5	17.6	21	65.7	> 85.6									
O=C1c2c(ccc3c2CCCC3)CC12Cc1ccccc1C2	> 100	> 35.4	27	> 48.2	> 100	> 100	71.7	> 100	> 100	45.5									
O=C1NC(N2CCCC(CO)C2)=N/C1=C\c1ccc(O)cc1 (stereo unspecified)	> 100	> 100	> 100	> 100	> 100	> 100	> 100	> 100	> 100	> 100									
COc1c(-c2ccc3c(c2)OCO3)oc2cc3c(c(OC)c2c1=O)OCO3	> 100	> 100	> 100	> 100	> 100	> 100	42.5	44.2	85.5										
C=C(Cl)C(Cl)(CBr)CCC(Cl)C(C)C (stereo unspecified)	42.6	> 62.9	> 100	> 100	4.26	3.77	> 65.5	11.5	29.3										
CC(=S)NC1C(Oc2ccc3c(C)cc(=O)oc3c2)OC(CO)C(O)C1O (stereo unspecified)		> 100	> 100	> 100		> 100	> 100		> 100	> 100									
C=CC(C)(C)c1cc([C@@H]2COc3cc(O)ccc3C2=O)c(O)c(OC)c1OC	31.2	> 100	> 100	> 100	31.9	30.3	38.9	51	43										
